Laboratory results as given in patent publication US4602945A, “Acaricidal ester of tricyclohexyl-tin hydroxide” (Rhone-Poulenc Agrochimie, priority 1983, dated 1986).

Columns and labels:
[1] = Solubility in organic solvents; assay type: physicochemical; details: cyclohexanone (546 g), 316 g of 94% pure substance, 50° C., with stirring
Method: A reactor is charged, with cyclohexanone (546 g) and 94% pure tricyclohexyl-tin hydroxide (316 g) at 50° C., with stirring. […] Benzoic acid (95 g) is then added and the temperature is kept at 50° C.

[2] = system: Plutella xylistella larvae; experiment: Insecticidal test, leaf discs of turnip plants; assay type: in vivo; details: 100 g/hl; 48 hours; 26° C; cyhexatin in the form of a wettable powder
Method: Discs of leaf from turnip plants are placed in gelose in Petri dishes. In each dish, 10 Plutella xylistella larvae are placed on each disc and the dish is covered with a ventilated lid. The product to be tested is dissolved in a water/acetone 50/50 mixture and the discs are treated by spraying with this solution by using a Potter tower at a dose equivalent to 675 liters/ha. The discs are kept at 26° C. After 48 hours after the treatment, the live and dead larvae are counted and the mortality percentage is calculated.

[3] = background statement; cited from earlier work

| Molecule | dissolution in cyclohexanone [1] | mortality percentage [2] | solubility in most of the usual solvents in agrochemistry [3] |
| --- | --- | --- | --- |
| [OH][Sn]([CH]1CCCCC1)([CH]1CCCCC1)[CH]1CCCCC1 [cyhexatin, Tricyclohexyl-tin hydroxide] | does not dissolve | < 10% | insolubility |
| tricyclohexyl-tin benzoate |  | at least 95% |  |
